Test results: US4812573A, “Pharmaceutically active compounds” (SmithKline & French Laboratories, Ltd., priority 1986, dated 1989)
Where a name gives a salt, the structure may show the parent alone.

Key:
[1] = target: T1, TXA2 receptors (Homo sapiens, UniProt P21731); assay: human platelet binding assay ([^125 I]PTA-OH receptor ligand); conditions: 50% inhibition of specific [^125 I]PTA-OH binding
T1 construct: endogenous in cells; host or cells: human platelets
T1 sequence (P21731 1-343): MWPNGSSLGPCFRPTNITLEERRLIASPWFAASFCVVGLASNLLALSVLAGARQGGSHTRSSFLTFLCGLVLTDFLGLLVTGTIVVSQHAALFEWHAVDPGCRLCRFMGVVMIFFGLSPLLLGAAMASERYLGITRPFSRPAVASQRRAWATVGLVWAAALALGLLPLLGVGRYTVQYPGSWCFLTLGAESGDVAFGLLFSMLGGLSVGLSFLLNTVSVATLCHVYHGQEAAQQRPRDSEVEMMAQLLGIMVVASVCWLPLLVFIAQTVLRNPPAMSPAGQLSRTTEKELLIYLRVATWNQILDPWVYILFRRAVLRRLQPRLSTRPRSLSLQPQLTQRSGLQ
Description: As indicated above, compounds of the formula (I) have biological activity that is indicative of an ability to antagonise TXA2 receptors. […] Exp. Ther., 1985, 235(3), 729-734 where [^125 I]PTA-OH was used as the receptor ligand. The IC50 values represent the concentration which produces a 50% inhibition of specific [^125 I]PTA-OH binding.

[2] = system: human washed platelets; assay: human platelet aggregation assay (submaximal U46619 induced aggregation); type: cell-based
Description: As indicated above, compounds of the formula (I) have biological activity that is indicative of an ability to antagonise TXA2 receptors.
(b) human platelet aggregation assay.
HUMAN PLATELET AGGREGATION ASSAY
The aggregation assay used human washed platelets and was based on that described by Born (Nature, 1962, vol. 194, 927-929). The assay determines a concentration of test compound which inhibits a submaximal U46619 induced aggregation by 50% (IC50). U46619 is the thromboxane A2 -agonist (9,11-dideoxy-11α,9α-epoxymethanoprostaglandin F2α).

Row | SMILES | IC50 [1] [µM] | IC50 [2] [µM]
1 | O=C(O)CCCN1CCc2ccc(S(=O)(=O)Nc3cccc(Cl)c3)cc2C1 [Example 2, 4-[7-(3-Chlorophenylsulphamoyl)-1,2,3,4-tetrahydroisoquinolin-2-yl]butyric acid] | 1.02 | 9.3
2 | O=C(O)CCCCCN1CCc2ccc(S(=O)(=O)Nc3cccc(Cl)c3)cc2C1 [Example 4, 6-[7-(3-Chlorophenylsulphamoyl)-1,2,3,4-tetrahydroisoquinolin-2-yl]hexanoicacid] | 3.8 | 34
3 | O=C(O)C#CCN1CCc2ccc(S(=O)(=O)Nc3cccc(Cl)c3)cc2C1 [Example 8, Sodium 4-[7-(3-chlorophenylsulphamoyl)-1,2,3,4-tetrahydroisoquinolin-2-yl]but-2-ynoate] | 0.7 | –
4 | CCCCC(C(=O)O)N1CCc2ccc(NS(=O)(=O)c3ccccc3)cc2C1 (centres unmarked) [Example 14, 2-[(7-Phenylsulphonamido)-1,2,3,4-tetrahydroisoquinolin-2-yl]-caproic acid hydrochloride] | 98 | –
5 | O=C(O)CCCCN1CCc2ccc(S(=O)(=O)Nc3cccc(Cl)c3)cc2C1 [Example 3b, 5-[7-(3-Chlorophenylsulphamoyl)-1,2,3,4-tetrahydroisoquinolin-2-yl]valeric acid] | 1.06 | 3.9
6 | O=C(O)CCCN1CCc2ccc(S(=O)(=O)Nc3ccc(Cl)cc3)cc2C1 [Example 15, 4-[7-(4-Chlorophenylsulphamoyl)-1,2,3,4-tetrahydroisoquinolin-2-yl]butyric acid] | 7.8 | –
7 | CCOC(=O)CCCCN1CCc2ccc(S(=O)(=O)Nc3cccc(Cl)c3)cc2C1 [Example 3a, ethyl-5-[7-(3-chlorophenylsulphamoyl)-1,2,3,4-tetrahydroisoquinolin-2-yl]valerate hydrochloride] | 3.1 | –
8 | O=C(O)CCCCN1CCc2c(cccc2NS(=O)(=O)c2ccccc2)C1 [Example 10, 5-[(5-Phenylsulphonamido)-1,2,3,4-tetrahydroisoquinolin-2-yl]valeric acid hydrochloride] | 134 | –
9 | O=C(O)CCN1CCc2ccc(S(=O)(=O)Nc3cccc(Cl)c3)cc2C1 [Example 1, 3-[7-(3-Chlorophenylsulphamoyl)-1,2,3,4-tetrahydroisoquinolin-2-yl]propionic acid] | 49.3 | 103
10 | O=C(O)CCCCN1CCc2ccc(NS(=O)(=O)c3ccccc3)cc2C1 [Example 12, 5-[7-Phenylsulphonamido-1,2,3,4-tetrahydroisoquiolin-2-yl]valeric acid] | 40.7 | –
11 | O=C(O)CN1CCc2ccc(NS(=O)(=O)c3ccccc3)cc2C1 [Example 13, 2-[(7-Phenylsulphonamido)-1,2,3,4-tetrahydroisiquinolin-2-yl]-acetic acid hydrochloride] | 84 | –
12 | O=C(O)CCCN1CCc2cc(NS(=O)(=O)c3ccccc3)ccc2C1 [Example 11, 4-[6-Phenylsulphonamido-1,2,3,4-tetrahydroisoquinolin-2-yl]butyric acid] | 232 | –
13 | O=C(O)CCCN1CCc2ccc(S(=O)(=O)Nc3cccc(C(F)(F)F)c3)cc2C1 [Example 7, 4-[7-(3-Trifluoromethylphenylsulphamoyl)-1,2,3,4-tetrahydroisoquinolin-2-yl]butyric acid] | 2.8 | –
14 | O=C(O)CCCN1CCc2c(cccc2NS(=O)(=O)c2ccccc2)C1 [Example 9, 4-[5-(Phenylsulphonamido)-1,2,3,4-tetrahydroisoquinolin-2-yl]butyric acid hydrochloride] | 79 | –
15 | O=C(O)CCCN1CCc2ccc(S(=O)(=O)Nc3ccccc3)cc2C1 [Example 5, 4-(7-Phenylsulphamoyl-1,2,3,4-tetrahydroisoquinolin-2-yl)butyric acid] | 3.75 | –
16 | O=C(O)CCCCN1CCc2ccc(S(=O)(=O)Nc3ccccc3)cc2C1 [Example 6, 5-(7-Phenylsulphamoyl-1,2,3,4-tetrahydroisoquinolin-2-yl)valeric acid] | 9.2 | –
